Where “and” joins values, the source holds several entries; their conditions need not be identical. Identical values can stand only once.
Assays:
NIH/3T3 cells = assay: MTT assay (mitochondrial activity), murine fibroblasts
Protocol: NIH/3T3 (ATCC CRL-1658) mouse embryonic fibroblasts were grown in Dulbecco’s modified Eagle’s medium (DMEM) supplemented with 2 mM glutamine, 10 % foetal bovine serum and a 1 % antibiotic-antimycotic solution at 37 °C in a humidified atmosphere with 5 % CO2.
NIH/3T3 and BF-2 cells were seeded in 96-well plates at a density of 1 × 10^4 or 2 × 10^4 cells per well, respectively. After 24 h of incubation at an appropriate temperature, cells were exposed to betulin at the concentrations mentioned above for 24, 48 and 72 h. Control (untreated) cells served as the negative control and a reference point. Triton X-100 treated cells served as the positive internal control in MTT, NRU and LDH assays. Due to the specific character of SRB assay, there was no positive control in this test. After 24, 48 and 72 h of treatment, the four different cytotoxicity assays were performed. All experiments were repeated three times.
The MTT assay is used to estimate mitochondrial damage, since it determines the activity of mitochondrial enzymes. These enzymes reduce the water-soluble tetrazolium dye MTT to insoluble purple formazan, which accumulates inside viable cells.
The MTT assay was conducted using the protocol described by Mosmann, with some modifications described in our previous article.
The MTT assay was used to determine the cytotoxicity of both betulin and the vehicle (DMSO).
All experiments were repeated three times. […] Statistical analyses were performed using GraphPad Prism software (GraphPad Software, USA). Data were subjected to one-way analysis of variance (ANOVA). Dunnett’s posttest was used to determine differences between control and betulin-exposed cells at the same time points. Differences between the two cell lines at the same time points were determined using Student’s t-test. The 50 % cytotoxic concentrations (CC50, defined as the concentration of the compound that reduced cell viability by 50 %) were calculated using the Quest Graph™ ED50 Calculator (AAT Bioquest, Inc.).

[1] = tested on: murine Balb/3T3 fibroblasts; parameters: method as in PMID 16112835; conditions: Balb/3T3, MTT assay; cited from earlier work
BF-2 cells = assay: MTT assay (mitochondrial activity), fish fibroblasts; format: cell-based, bluegill
Protocol: BF-2 (ATCC CCL-91) bluegill caudal trunk fibroblasts were grown in minimum essential medium (Eagle, EBSS) supplemented with 1 % nonessential amino acids (NEAAs), 10 % foetal bovine serum and 1 % antibiotic-antimycotic solution at 23 °C in a humidified atmosphere with 5 % CO2.
All experiments were repeated three times.

[2] = tested on: GSF3.2 goat skin fibroblasts; parameters: method as in earlier work; conditions: GSF3.2, trypan blue; cited from earlier work

SMILES: C[S+](C)[O-] [DMSO, Dimethyl sulfoxide]
- CC50 DMSO (MTT) 24 h (NIH/3T3 cells; NIH/3T3, 24 h, mean ± SD, n = 3): 2.989 ± 0.159%
- CC50 DMSO (MTT) 48 h (NIH/3T3 cells; NIH/3T3, 48 h, mean ± SD, n = 3): 2.374 ± 0.395%
- CC50 DMSO (MTT) 72 h (NIH/3T3 cells; NIH/3T3, 72 h, mean ± SD, n = 3): 1.635% and 1.635 ± 0.423%
- maximum tolerable DMSO concentration (NIH/3T3 cells; NIH/3T3, concentration at which viability exceeded 90 % throughout the experiment): 0.625%
- DMSO concentration with absence of any measurable activity of mitochondria (NIH/3T3 cells; murine fibroblasts, MTT): 10%
- IC50 of DMSO [1]: 2.75%
- CC50 DMSO (MTT) 24 h (BF-2 cells; BF-2, 24 h, mean ± SD, n = 3): 5.031 ± 0.423%
- CC50 DMSO (MTT) 48 h (BF-2 cells; BF-2, 48 h, mean ± SD, n = 3): 4.434 ± 0.717%
- CC50 DMSO (MTT) 72 h (BF-2 cells; BF-2, 72 h, mean ± SD, n = 3): 4.794% and 4.794 ± 0.337%
- maximum tolerable DMSO concentration (BF-2 cells; BF-2, concentration at which viability exceeded 90 % throughout the experiment): 1.25%
- DMSO concentration with absence of any measurable activity of mitochondria (BF-2 cells; fish fibroblasts, MTT): 20%
- DMSO concentrations giving significant increase in the number of live cells [2]: less than 0.1%

From publication PMC8152350, “High cytotoxicity of betulin towards fish and murine fibroblasts: Is betulin safe for nonneoplastic cells?” (BMC Veterinary Research, 2021)
